In patent US20110097741A1, “PARTIAL T1R2 NUCLEIC ACID SEQUENCE, RECEPTOR PROTEIN AND ITS USE IN SCREENING ASSAYS” (priority 2006, published 2011):

Legend:
T1R2-TMD = biological target: T1, T1R2-TMD (Homo sapiens, UniProt Q8TE23); test: Fluo-4 calcium assay in HEK293 cells stably expressing G16gust44 and T1R2-TMD; assay type: cell-based
T1 construct: first 45 amino acids of rat somatostatin type 3 receptor plus linker) (N); expressed in transfected cells; host or cells: HEK-293-T-Rex based cell line stably expressing G16gust44
T1 sequence (Q8TE23 564-839): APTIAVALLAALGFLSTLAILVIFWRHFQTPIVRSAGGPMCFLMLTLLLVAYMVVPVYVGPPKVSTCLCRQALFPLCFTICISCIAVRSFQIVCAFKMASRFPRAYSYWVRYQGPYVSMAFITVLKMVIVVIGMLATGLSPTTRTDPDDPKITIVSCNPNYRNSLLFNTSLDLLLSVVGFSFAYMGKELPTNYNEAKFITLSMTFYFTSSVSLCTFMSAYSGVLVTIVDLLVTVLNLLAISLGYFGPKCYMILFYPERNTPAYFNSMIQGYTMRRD
Source text: (§1) All examples use the human receptors.
Fluo-4 is a fluorescent indicator for intracellular calcium and allows to determine changes in the calcium concentration, in particular an increase in response to receptor activation occurring after ligand addition (for example perillartine or methyl chavicol).
HEK293 cells stably expressing G alpha 16 gustducin 44 and transfected with T1R2-TMD as described in example 3 were used as host cells.
Black, clear-bottom 96-well plates were used for all assays. They were seeded the day before with 8500 transfected cells per well and maintained at 37° C. overnight in a growth medium appropriate for the cells used. For HEK293 cells, Dulbecco's Modified Eagle medium containing high glucose, L-glutamine, pyroxidine hydrochloride, and supplemented with 10% fetal bovine serum was used for growth and maintenance of the HEK293 cells.
At the time of the assay, the growth medium was discarded and cells were incubated for 1 hour (at 37° C. in the dark) with 50 μl of a calcium assay solution consisting of 1.5 μM Fluo-4 AM (Molecular Probes™, Invitrogen, US) and 2.5 μM probenicid (Sigma-Aldrich) dissolved in a C1 buffer solution. C1 buffer solution contains 130 mM NaCl, 5 mM KCl, 10 mM Hepes, 2 mM CaCl2 and 10 mM glucose (pH 7.4).
After the initial 1 hour loading period, the plates were washed 5 times with 100 μl per well of C1 buffer using an automated plate washer (BioTek) and after washing, the plate was further incubated for 30 minutes at room temperature in the dark to allow for complete de-esterification of the Fluo-4-AM. […]
(§2) For assay reading, the plate was placed in a FLIPR (fluorescence imaging plate reader (FLIPR-Tetra, Molecular Devices)), and receptor activation was initiated following addition of 20 μl of a 10× concentrated ligand stock solution.
(§3) Fluorescence was continuously monitored for 15 seconds prior to ligand addition and for 105 seconds after ligand addition (45-105 sec may be sufficient). […]
(§4) Fluorescence Increase=Maximum Fluorescence−baseline fluorescence,
wherein the baseline fluorescence represents the mean fluorescence calculated for the first 10 to 15 seconds prior to ligand addition.
As a negative control, mock transfected cells were exposed to the same concentration of ligand and the concentration of calcium traces not corresponding to a signal was determined. […]
The data was calculated as described in example 1 and illustrated the net increase in fluorescence over baseline following stimulation of the cells with 50 μM perillartine. […]
HEK293T cells that stably express G16gust44 and T1R2-TMD (formed as described in example 3) are loaded with the calcium dye Fluo-4, and their response to perillartine is measured by using fluorescent calcium signals as described in example 1. […]

[1] = tested on: host cells expressing only the G16gust44 chimeric G-protein; test: Fluo-4 calcium assay in negative control cells expressing G16gust44 only; assay type: cell-based, human
Description: As a negative control, mock transfected cells were exposed to the same concentration of ligand and the concentration of calcium traces not corresponding to a signal was determined.
As a result of said evalution, it was determined that when these cell lines are exposed to perillartine, many of cell clones respond to this stimulus with a significant increase in fluorescence which is greater than 10-times of the signal compared to the signal of the negative control (cells that express solely G16gust44 promiscuous G-protein but not T1R2-TMD).
The signals elicited by the test agents in cells that stably express G16gust44 and T1R2-TMD containing cells (formed as described in example 3) were compared to the signals obtained in cells that stably express G16gust44 and the T1R2/T1R3 heterodimer (formed as described in example 4), and as a negative control, cells that stably express G16gust44 were used.

T1R2/T1R3 heterodimer = biological target: T2, T1R2/T1R3 heterodimer (Homo sapiens, UniProt Q8TE23); test: Fluo-4 calcium assay in cells stably expressing G16gust44 and the T1R2/T1R3 heterodimer; assay type: cell-based; details: 4-parameter logistic fit
T2 construct: expressed in transfected cells; host or cells: HEK-293-T-Rex based cell line stably expressing G16gust44
T2 sequence (Q8TE23 20-839): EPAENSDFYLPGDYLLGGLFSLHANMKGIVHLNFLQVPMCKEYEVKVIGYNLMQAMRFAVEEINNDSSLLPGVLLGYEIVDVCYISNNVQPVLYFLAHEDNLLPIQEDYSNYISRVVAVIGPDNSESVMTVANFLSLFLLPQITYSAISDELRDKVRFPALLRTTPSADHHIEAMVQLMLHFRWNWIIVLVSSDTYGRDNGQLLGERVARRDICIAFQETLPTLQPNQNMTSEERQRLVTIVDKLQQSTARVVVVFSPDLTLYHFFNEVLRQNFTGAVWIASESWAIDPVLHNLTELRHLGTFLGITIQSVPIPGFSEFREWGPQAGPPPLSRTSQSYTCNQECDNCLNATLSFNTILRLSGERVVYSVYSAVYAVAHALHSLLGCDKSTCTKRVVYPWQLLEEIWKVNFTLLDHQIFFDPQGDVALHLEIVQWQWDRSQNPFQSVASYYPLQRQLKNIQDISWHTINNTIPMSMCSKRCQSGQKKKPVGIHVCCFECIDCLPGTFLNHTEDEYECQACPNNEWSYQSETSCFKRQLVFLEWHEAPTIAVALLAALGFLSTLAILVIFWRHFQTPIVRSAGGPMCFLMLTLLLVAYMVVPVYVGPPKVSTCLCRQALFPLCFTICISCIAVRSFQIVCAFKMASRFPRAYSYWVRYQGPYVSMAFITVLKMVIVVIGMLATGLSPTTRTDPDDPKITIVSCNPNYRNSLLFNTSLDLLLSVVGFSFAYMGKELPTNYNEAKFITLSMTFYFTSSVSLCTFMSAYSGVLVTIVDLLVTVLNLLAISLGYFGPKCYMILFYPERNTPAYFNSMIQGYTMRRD
T2 sequence (Q7RTX0 21-852 C757R partner): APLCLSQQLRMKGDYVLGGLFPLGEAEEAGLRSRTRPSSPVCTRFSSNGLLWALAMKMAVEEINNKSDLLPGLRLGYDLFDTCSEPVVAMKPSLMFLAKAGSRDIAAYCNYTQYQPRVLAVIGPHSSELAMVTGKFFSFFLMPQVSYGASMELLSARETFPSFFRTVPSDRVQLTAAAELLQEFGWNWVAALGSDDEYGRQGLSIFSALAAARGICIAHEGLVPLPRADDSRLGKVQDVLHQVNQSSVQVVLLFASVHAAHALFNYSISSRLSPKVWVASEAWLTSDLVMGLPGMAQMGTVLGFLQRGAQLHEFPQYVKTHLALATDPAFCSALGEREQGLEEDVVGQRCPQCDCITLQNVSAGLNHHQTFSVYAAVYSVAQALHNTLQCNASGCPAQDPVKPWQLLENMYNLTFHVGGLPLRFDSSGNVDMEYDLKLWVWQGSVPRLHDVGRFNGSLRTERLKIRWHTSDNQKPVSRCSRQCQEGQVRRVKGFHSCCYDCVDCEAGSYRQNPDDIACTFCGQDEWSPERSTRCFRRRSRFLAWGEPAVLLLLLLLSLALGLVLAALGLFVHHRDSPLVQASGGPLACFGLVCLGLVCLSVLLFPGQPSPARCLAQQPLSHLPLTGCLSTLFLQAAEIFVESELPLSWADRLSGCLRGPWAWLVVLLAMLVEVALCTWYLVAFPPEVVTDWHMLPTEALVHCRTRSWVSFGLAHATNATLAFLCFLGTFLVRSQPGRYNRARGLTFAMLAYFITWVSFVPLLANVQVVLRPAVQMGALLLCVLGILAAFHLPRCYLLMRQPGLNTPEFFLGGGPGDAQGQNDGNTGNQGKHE
Description: as §1
At the time of the assay, the growth medium was discarded and cells were incubated for 1 hour (at 37° C. in the dark) with 50 μl of a calcium assay solution consisting of 1.5 μM Fluo-4 AM (Molecular Probes™, Invitrogen, US) and 2.5 μM probenicid (Sigma-Aldrich) dissolved in a C1 buffer solution. C1 buffer solution contains 130 mM NaCl, 5 mM KCl, 10 mM Hepes, 2 mM CaCl2 and 10 mM glucose (pH 7.4). […]
as §2, §3, §4
wherein the baseline fluorescence represents the mean fluorescence calculated for the first 10 to 15 seconds prior to ligand addition. […]
Resistant colonies were expanded, and identified as containing the T1R2/T1R3 sweet heterodimer by their response to various sweetener compounds including sucrose, sucralose, aspartame and acesulfame K, which was determined via automated fluorimetric imaging on the FLIPR-Tetra instrumentation (Molecular Devices) using the methods described in example 1. […]

Structure (SMILES) | calcium signaling upon stimulation (T1R2-TMD; 50 μM, cells stably expressing human T1R2-TMD, not in negative control) | AVERAGE [RFU] (net increase in fluorescence over baseline) (T1R2-TMD; T1R2-TMD/G16gust44 cells, 50 μM perillartine, no tetracycline induction) | EC50 (T1R2-TMD; T1R2-TMD, 4-parameter logistic fit, doses 0.1 to 200 micromolar) [µM] | increase in fluorescence, signal compared to the signal of the negative control (T1R2-TMD; many cell clones, 50 μM perillartine, absence of tetracycline induction, vs cells expressing solely G16gust44) | AVERAGE [RFU] (net increase in fluorescence over baseline) ([1]; G16gust44 ONLY (neg. control) cells, 50 μM perillartine) | EC50 (T1R2/T1R3 heterodimer) [µM] | Negative control [RFU] ([1]; 100 micromolar, cells stably expressing G16gust44 only, average of two replicates)
C=C(C)[C@@H]1CC=C(/C=N/O)CC1 [perillartine] | Significant increases | 973.06 | 6.2 | greater than 10 times | 73.78 | 3.5 | –
C=CCc1ccc(OC)cc1 [Methyl chavicol] | – | – | – | – | – | – | 732.195
